From PubChem BioAssay (NCI)
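Cells were grown in 96-well plates and exposed to each compound for 48 hours at five concentrations; endpoints were interpolated linearly between bracketing concentrations, or set to the highest concentration if not reached. GI50 = concentration required for 50% inhibition of growth. Definition used: TGI = concentration required for complete inhibition of growth.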

Columns and labels:
Assay in all cases: growth of human tumour cells (NCI), 48 h
[1] = system: OVCAR-3 ovarian
[2] = system: SW-620 colon
[3] = system: M14 melanoma
[4] = system: T-47D breast
[5] = system: UACC-62 melanoma
[6] = system: HL-60(TB) leukemia
[7] = system: MDA-MB-435
[8] = system: UO-31 renal
[9] = system: SN12C renal
[10] = system: HS 578T breast

Row | Compound | TGI [1] | TGI [2] | TGI [3] | TGI [4] | TGI [5] | TGI [6] | TGI [7] | TGI [8] | TGI [9] | TGI [10] | GI50 [1] | GI50 [2] | GI50 [10] | GI50 [5] | GI50 [6] | GI50 [7] | GI50 [8] | GI50 [4] | GI50 [9]
1 | COc1ccc2c(c1)CCCN1CCc3cc(OC)c(OC)cc3C21 (configuration not stated) | > 100 µM | > 100 µM | > 100 µM | > 100 µM | > 100 µM | > 100 µM | > 100 µM | > 100 µM | > 100 µM | – | – | – | – | – | – | – | – | – | –
2 | O=S(=O)(O)c1ccc2c(N=Nc3ccccc3Cl)c(O)ccc2c1 | > 100 µM | > 100 µM | > 100 µM | > 100 µM | > 100 µM | – | > 100 µM | > 100 µM | > 100 µM | > 100 µM | – | – | – | – | – | – | – | – | –
3 | COC(OC)(c1ccccc1)C(I)I | 28.7 µM | > 37.1 µM | 15.2 µM | 63.1 µM | 26.6 µM | 20.4 µM | 18 µM | 29.8 µM | 50.4 µM | 62.4 µM | – | – | – | – | – | – | – | – | –
4 | Cc1ccc([N+](=O)[O-])cc1S(=O)(=O)Nc1ccc(C2=NNC(c3cccs3)C2)cc1 (configuration not stated) | 43.2 µM | > 100 µM | 68.8 µM | 43.4 µM | 34.1 µM | 50.9 µM | > 100 µM | > 100 µM | 90.6 µM | > 100 µM | – | – | – | – | – | – | – | – | –
5 | NC12CC3CC4C1CC1CC2C(C3)C4(N)C1 | > 100 µM | > 100 µM | > 100 µM | > 100 µM | > 100 µM | > 100 µM | > 100 µM | > 100 µM | > 100 µM | > 100 µM | – | – | – | – | – | – | – | – | –
6 | CCOC(=O)c1cc(=O)oc2c1N(C)c1ncccc1N2 | > 100 µM | > 100 µM | > 100 µM | > 100 µM | > 100 µM | – | > 100 µM | > 100 µM | > 100 µM | > 100 µM | – | – | – | – | – | – | – | – | –
7 | COc1cc(C2SCC(=O)N2c2ccc(Cl)cc2)cc(I)c1O (configuration not stated) | > 100 µM | > 100 µM | > 100 µM | > 100 µM | > 28.5 µM | > 100 µM | > 100 µM | > 100 µM | > 100 µM | > 100 µM | – | – | – | – | – | – | – | – | –
8 | CSc1nc(O)c(/C=C2\C=Nc3ccccc32)[nH]1 | > 100 µM | > 100 µM | > 100 µM | > 100 µM | > 100 µM | 94.1 µM | > 100 µM | > 100 µM | > 100 µM | > 100 µM | – | – | – | – | – | – | – | – | –
9 | Cc1ccc(/C=N/Nc2nncc3ccccc23)s1 | > 100 µM | > 100 µM | > 100 µM | > 100 µM | > 100 µM | > 100 µM | > 100 µM | > 100 µM | > 100 µM | > 100 µM | – | – | – | – | – | – | – | – | –
10 | O=C1CCCCC[C@]12SC[C@H]1CON=C12 | > 100 µM | > 100 µM | 62 µM | – | 71.7 µM | > 100 µM | 39.5 µM | > 100 µM | 57.6 µM | > 100 µM | – | – | – | – | – | – | – | – | –
11 | CSc1nncc2[nH]cnc12 | > 100 µM | > 100 µM | > 100 µM | > 100 µM | > 100 µM | > 100 µM | > 100 µM | > 100 µM | > 100 µM | > 100 µM | – | – | – | – | – | – | – | – | –
12 | COc1cc2c(cc1OC)C(Cc1ccccc1CCCl)=NCC2 | > 100 µM | > 100 µM | > 100 µM | > 100 µM | > 100 µM | 97.2 µM | > 100 µM | > 100 µM | > 100 µM | > 100 µM | – | – | – | – | – | – | – | – | –
13 | CCOC(=O)c1c(C)[nH]c(/C=C2\N=C(c3ccc[nH]3)C=C2OC)c1C | 0.299 µM | 1.33 µM | – | – | 0.0904 µM | 0.442 µM | 1.15 µM | 0.058 µM | – | 0.925 µM | 0.0152 µM | < 0.01 µM | 0.0577 µM | 0.0309 µM | 0.0232 µM | 0.0186 µM | 0.0239 µM | – | –
14 | O=C(OCC1CCCN2CCCCC12)c1ccncc1 (configuration not stated) | > 100 µM | > 100 µM | > 100 µM | > 100 µM | > 100 µM | – | > 100 µM | > 100 µM | > 100 µM | > 100 µM | – | – | – | – | – | – | – | – | –
15 | CSc1ccc(/C=C2\N=C(c3ccccc3)N(c3nc4c(Cl)cc(Cl)cc4s3)C2=O)cc1 | 40 µM | > 100 µM | 62.9 µM | 98.4 µM | 73.1 µM | 69.7 µM | 43.2 µM | 47.9 µM | 56.3 µM | 64.6 µM | – | – | – | – | – | – | – | – | –
16 | CC[C@@]1(O)C(=O)OCc2c1cc1n(c2=O)Cc2c-1nc1ccccc1c2/C=N\NC(=O)C(N)Cc1cnc[nH]1 (some centres not stated) | > 51.4 µM | > 100 µM | 2.63 µM | > 100 µM | 1.22 µM | – | > 85.9 µM | 2.33 µM | > 73 µM | > 100 µM | – | – | – | – | – | – | – | – | –
17 | O=CC1OC(=O)c2cc(O)c(O)c(O)c2-c2c(cc(O)c(O)c2O)C(=O)OC1C(O)C(O)CO (configuration not stated) | > 100 µM | 32.9 µM | > 100 µM | – | – | > 100 µM | 32.9 µM | > 100 µM | > 100 µM | > 100 µM | – | – | – | – | – | – | – | – | –
18 | O=C1OC[C@@H]2Cc3c([nH]c4ccccc34)[C@@H](c3cc(O)c(O)c(O)c3)N12 | – | 53.4 µM | 36.7 µM | > 100 µM | 75.5 µM | 15 µM | 25.9 µM | > 100 µM | 98.9 µM | 76.2 µM | – | – | – | – | – | – | – | – | –
19 | COC(=O)c1cc2c3c(cc(O)c2[nH]1)N(C(=O)C1Cc2cc(OC)c(OC)c(OC)c2N1)CC3CCl (configuration not stated) | – | 0.132 µM | – | < 0.01 µM | – | 0.0102 µM | – | – | 0.0154 µM | – | – | < 0.01 µM | – | – | < 0.01 µM | – | – | < 0.01 µM | < 0.01 µM
20 | CCOC(=O)C(C)(C)/C=C\C(Cl)=C(Cl)Cl | > 100 µM | > 100 µM | > 100 µM | – | > 100 µM | > 100 µM | > 100 µM | > 100 µM | > 100 µM | > 100 µM | – | – | – | – | – | – | – | – | –
21 | Nc1nc(N)c2nc(-c3ccco3)cnc2n1 | > 100 µM | – | > 100 µM | – | > 100 µM | 89.6 µM | – | > 100 µM | > 100 µM | – | – | – | – | – | – | – | – | – | –
22 | Cc1ccc(S(=O)(=O)/N=C(\[O-])C2=C(c3ccccc3)NN(C)c3nc4cccc[n+]4nc32)cc1 | – | > 100 µM | > 100 µM | > 100 µM | > 100 µM | > 100 µM | > 100 µM | > 100 µM | > 100 µM | > 100 µM | – | – | – | – | – | – | – | – | –
